Species: Rattus norvegicus
Experiment: DrugMatrix - Regimen: Daily Repeat
Assay type: toxicity, organism-based, Sprague-Dawley
Design: regimen Daily Repeat, gender Male, age 6-8 weeks
Details: in vivo, po, route oral GAVAGE; for ABSOLUTE BASOPHIL / ABSOLUTE EOSINOPHIL / ABSOLUTE LYMPHOCYTE / ABSOLUTE MONOCYTE / ABSOLUTE SEGMENTED NEUTROPHIL / BASOPHIL / EOSINOPHIL / ERYTHROCYTE COUNT / HEMATOCRIT / HEMOGLOBIN / LEUKOCYTE COUNT / LYMPHOCYTE / MEAN CORPUSCULAR HEMOGLOBIN / MEAN CORPUSCULAR HEMOGLOBIN CONCENTRATION / MEAN CORPUSCULAR VOLUME / MONOCYTE / NEUTROPHIL / NUCLEATED RED BLOOD CELLS / PLATELET COUNT: tissue Blood; for ALANINE AMINOTRANSFERASE / ALBUMIN / ALKALINE PHOSPHATASE / ASPARTATE AMINOTRANSFERASE / BLOOD UREA NITROGEN / CARBON DIOXIDE / CHLORIDE / CHOLESTEROL / CREATINE PHOSPHOKINASE / CREATININE / GLUCOSE / LACTATE DEHYDROGENASE / LIPASE / PHOSPHORUS / POTASSIUM / SODIUM / TOTAL BILIRUBIN / TOTAL PROTEIN / URIC ACID: tissue Plasma
[1] = 16 mg/kg, 72 h, dose level Low, time 3 day, […]
[2] = 16 mg/kg, 120 h, dose level Low, time 5 day, […]
[3] = 0 mg/kg, 72 h, dose level Control, time 3 day, vehicle 100 % WATER
[4] = 0 mg/kg, 120 h, dose level Control, time 5 day, vehicle 100 % WATER
[5] = 58 mg/kg, 72 h, dose level Low, time 3 day, vehicle 100 % WATER
[6] = 58 mg/kg, 120 h, dose level Low, time 5 day, vehicle 100 % WATER

SMILES: O=C(O)c1cc(-c2ccc(F)cc2F)ccc1O [DIFLUNISAL]
- ABSOLUTE BASOPHIL [1]: 0 CELLS/uL
- ABSOLUTE EOSINOPHIL [1]: 52.33 CELLS/uL
- ABSOLUTE LYMPHOCYTE [1]: 12636.67 CELLS/uL
- ABSOLUTE MONOCYTE [1]: 104.67 CELLS/uL
- ABSOLUTE SEGMENTED NEUTROPHIL [1]: 1073 CELLS/uL
- BASOPHIL [1]: 0%
- EOSINOPHIL [1]: 0.33%
- ERYTHROCYTE COUNT [1]: 5.44 x10E6/uL
- HEMATOCRIT [1]: 33.4%
- HEMOGLOBIN [1]: 13.27 G/DL
- LEUKOCYTE COUNT [1]: 13.87 x10E3/uL
- LYMPHOCYTE [1]: 91.33%
- MEAN CORPUSCULAR HEMOGLOBIN [1]: 24.4 pg
- MEAN CORPUSCULAR HEMOGLOBIN CONCENTRATION [1]: 39.73 G/DL
- MEAN CORPUSCULAR VOLUME [1]: 61.47 fL
- MONOCYTE [1]: 0.67%
- NEUTROPHIL [1]: 7.67%
- NUCLEATED RED BLOOD CELLS [1]: 0 /100WBC
- PLATELET COUNT [1]: 1096.67 x10E3/uL
- ALANINE AMINOTRANSFERASE [1]: 65.33 u/L
- ALBUMIN [1]: 3.77 G/DL
- ALKALINE PHOSPHATASE [1]: 396.67 u/L
- ASPARTATE AMINOTRANSFERASE [1]: 93.33 u/L
- BLOOD UREA NITROGEN [1]: 10.67 mg/dL
- CARBON DIOXIDE [1]: 29.67 mmol/L
- CHLORIDE [1]: 100 MEQ/L
- CHOLESTEROL [1]: 80.67 mg/dL
- CREATINE PHOSPHOKINASE [1]: 405 u/L
- CREATININE [1]: 0.14 mg/dL
- GLUCOSE [1]: 166.67 mg/dL
- LACTATE DEHYDROGENASE [1]: 130 u/L
- LIPASE [1]: 11.33 u/L
- PHOSPHORUS [1]: 11.43 mg/dL
- POTASSIUM [1]: 6.17 MEQ/L
- SODIUM [1]: 141.97 MEQ/L
- TOTAL BILIRUBIN [1]: 0.13 mg/dL
- TOTAL PROTEIN [1]: 5.47 G/DL
- URIC ACID [1]: 1.53 mg/dL
- ABSOLUTE BASOPHIL [2]: 0 CELLS/uL
- ABSOLUTE EOSINOPHIL [2]: 84.67 CELLS/uL
- ABSOLUTE LYMPHOCYTE [2]: 10265 CELLS/uL
- ABSOLUTE MONOCYTE [2]: 157.67 CELLS/uL
- ABSOLUTE SEGMENTED NEUTROPHIL [2]: 1026 CELLS/uL
- BASOPHIL [2]: 0%
- EOSINOPHIL [2]: 0.67%
- ERYTHROCYTE COUNT [2]: 5.28 x10E6/uL
- HEMATOCRIT [2]: 33.5%
- HEMOGLOBIN [2]: 13.6 G/DL
- LEUKOCYTE COUNT [2]: 11.53 x10E3/uL
- LYMPHOCYTE [2]: 89%
- MEAN CORPUSCULAR HEMOGLOBIN [2]: 25.73 pg
- MEAN CORPUSCULAR HEMOGLOBIN CONCENTRATION [2]: 40.63 G/DL
- MEAN CORPUSCULAR VOLUME [2]: 63.37 fL
- MONOCYTE [2]: 1.33%
- NEUTROPHIL [2]: 9%
- NUCLEATED RED BLOOD CELLS [2]: 0.33 /100WBC
- PLATELET COUNT [2]: 1107.33 x10E3/uL
- ALANINE AMINOTRANSFERASE [2]: 56 u/L
- ALBUMIN [2]: 4.13 G/DL
- ALKALINE PHOSPHATASE [2]: 404.33 u/L
- ASPARTATE AMINOTRANSFERASE [2]: 84.33 u/L
- BLOOD UREA NITROGEN [2]: 16 mg/dL
- CARBON DIOXIDE [2]: 25.33 mmol/L
- CHLORIDE [2]: 102.33 MEQ/L
- CHOLESTEROL [2]: 68.67 mg/dL
- CREATINE PHOSPHOKINASE [2]: 379.67 u/L
- CREATININE [2]: 0.23 mg/dL
- GLUCOSE [2]: 159.33 mg/dL
- LACTATE DEHYDROGENASE [2]: 227 u/L
- LIPASE [2]: 11.67 u/L
- PHOSPHORUS [2]: 11.33 mg/dL
- POTASSIUM [2]: 6.39 MEQ/L
- SODIUM [2]: 143.53 MEQ/L
- TOTAL BILIRUBIN [2]: 0.17 mg/dL
- TOTAL PROTEIN [2]: 5.47 G/DL
- URIC ACID [2]: 1.67 mg/dL

SMILES: C#Cc1cccc(Nc2ncnc3cc(OCCOC)c(OCCOC)cc23)c1 [ERLOTINIB]
- ERYTHROCYTE COUNT [3]: 6.09 x10E6/uL
- HEMATOCRIT [3]: 42.62%
- HEMOGLOBIN [3]: 13.07 G/DL
- LEUKOCYTE COUNT [3]: 13.95 x10E3/uL
- MEAN CORPUSCULAR HEMOGLOBIN [3]: 21.47 pg
- MEAN CORPUSCULAR HEMOGLOBIN CONCENTRATION [3]: 30.62 G/DL
- MEAN CORPUSCULAR VOLUME [3]: 70.05 fL
- ALKALINE PHOSPHATASE [3]: 369 u/L
- ASPARTATE AMINOTRANSFERASE [3]: 86.17 u/L
- BLOOD UREA NITROGEN [3]: 16.33 mg/dL
- CARBON DIOXIDE [3]: 37.33 mmol/L
- CHLORIDE [3]: 104.83 MEQ/L
- CHOLESTEROL [3]: 79.83 mg/dL
- CREATINE PHOSPHOKINASE [3]: 392.83 u/L
- CREATININE [3]: 0.68 mg/dL
- GLUCOSE [3]: 153.33 mg/dL
- LACTATE DEHYDROGENASE [3]: 426.17 u/L
- LIPASE [3]: 11.67 u/L
- PHOSPHORUS [3]: 11 mg/dL
- POTASSIUM [3]: 6.72 MEQ/L
- SODIUM [3]: 146.67 MEQ/L
- TOTAL BILIRUBIN [3]: 0.55 mg/dL
- TOTAL PROTEIN [3]: 6.32 G/DL
- URIC ACID [3]: 0.0167 mg/dL
- ERYTHROCYTE COUNT [4]: 6.93 x10E6/uL
- HEMATOCRIT [4]: 46.82%
- HEMOGLOBIN [4]: 14.23 G/DL
- LEUKOCYTE COUNT [4]: 13.43 x10E3/uL
- MEAN CORPUSCULAR HEMOGLOBIN [4]: 20.55 pg
- MEAN CORPUSCULAR HEMOGLOBIN CONCENTRATION [4]: 30.38 G/DL
- MEAN CORPUSCULAR VOLUME [4]: 67.62 fL
- ALKALINE PHOSPHATASE [4]: 417.83 u/L
- ASPARTATE AMINOTRANSFERASE [4]: 83 u/L
- BLOOD UREA NITROGEN [4]: 15.33 mg/dL
- CARBON DIOXIDE [4]: 38.83 mmol/L
- CHLORIDE [4]: 98.17 MEQ/L
- CHOLESTEROL [4]: 66.83 mg/dL
- CREATINE PHOSPHOKINASE [4]: 383.17 u/L
- CREATININE [4]: 0.72 mg/dL
- GLUCOSE [4]: 156.5 mg/dL
- LACTATE DEHYDROGENASE [4]: 519.67 u/L
- LIPASE [4]: 4.83 u/L
- PHOSPHORUS [4]: 11.07 mg/dL
- POTASSIUM [4]: 6.03 MEQ/L
- SODIUM [4]: 138 MEQ/L
- TOTAL BILIRUBIN [4]: 0.55 mg/dL
- TOTAL PROTEIN [4]: 6.3 G/DL
- URIC ACID [4]: 0.0833 mg/dL
- ERYTHROCYTE COUNT [5]: 7.23 x10E6/uL
- HEMATOCRIT [5]: 47.6%
- HEMOGLOBIN [5]: 14.6 G/DL
- LEUKOCYTE COUNT [5]: 17.02 x10E3/uL
- MEAN CORPUSCULAR HEMOGLOBIN [5]: 20.2 pg
- MEAN CORPUSCULAR HEMOGLOBIN CONCENTRATION [5]: 30.77 G/DL
- MEAN CORPUSCULAR VOLUME [5]: 265.73 fL
- ALKALINE PHOSPHATASE [5]: 184.67 u/L
- ASPARTATE AMINOTRANSFERASE [5]: 86.33 u/L
- BLOOD UREA NITROGEN [5]: 16 mg/dL
- CARBON DIOXIDE [5]: 39 mmol/L
- CHLORIDE [5]: 107.67 MEQ/L
- CHOLESTEROL [5]: 93.67 mg/dL
- CREATINE PHOSPHOKINASE [5]: 293 u/L
- CREATININE [5]: 0.73 mg/dL
- GLUCOSE [5]: 141.33 mg/dL
- LACTATE DEHYDROGENASE [5]: 441.67 u/L
- LIPASE [5]: 21.33 u/L
- PHOSPHORUS [5]: 10 mg/dL
- POTASSIUM [5]: 6.7 MEQ/L
- SODIUM [5]: 148.67 MEQ/L
- TOTAL BILIRUBIN [5]: 0.73 mg/dL
- TOTAL PROTEIN [5]: 5.13 G/DL
- URIC ACID [5]: 0 mg/dL
- ERYTHROCYTE COUNT [6]: 7.1 x10E6/uL
- HEMATOCRIT [6]: 46.07%
- HEMOGLOBIN [6]: 13.83 G/DL
- LEUKOCYTE COUNT [6]: 18.86 x10E3/uL
- MEAN CORPUSCULAR HEMOGLOBIN [6]: 19.47 pg
- MEAN CORPUSCULAR HEMOGLOBIN CONCENTRATION [6]: 29.97 G/DL
- MEAN CORPUSCULAR VOLUME [6]: 64.9 fL
- ALKALINE PHOSPHATASE [6]: 222 u/L
- ASPARTATE AMINOTRANSFERASE [6]: 105.33 u/L
- BLOOD UREA NITROGEN [6]: 14.67 mg/dL
- CARBON DIOXIDE [6]: 38.67 mmol/L
- CHLORIDE [6]: 100.33 MEQ/L
- CHOLESTEROL [6]: 81.33 mg/dL
- CREATINE PHOSPHOKINASE [6]: 332 u/L
- CREATININE [6]: 0.73 mg/dL
- GLUCOSE [6]: 135 mg/dL
- LACTATE DEHYDROGENASE [6]: 477.67 u/L
- LIPASE [6]: 16.67 u/L
- PHOSPHORUS [6]: 11.53 mg/dL
- POTASSIUM [6]: 6.07 MEQ/L
- SODIUM [6]: 141 MEQ/L
- TOTAL BILIRUBIN [6]: 0.5 mg/dL
- TOTAL PROTEIN [6]: 5.57 G/DL
- URIC ACID [6]: 0.1 mg/dL
